Data: patent US7011816B2, “Labeling targeting agents with gallium-68 and gallium-67” (Immunomedics, Inc., priority 2001, dated 2006)
*1 amine or outer side, *2 acyl side, *3 side chain or, on linkers, in order; H or OH if unused. Where a SMILES comes first, the peptide text is derived from it. Side-chain parts run from the residue outwards. [ ]: non-standard residue; d: D form. The star is where a group is joined. DOTA = O=C(O)CN1CCN(CC(=O)O)CCN(CC(=O)*)CCN(CC(=O)O)CC1; NH(2-(imidazol-4-yl)ethyl) = c1ncc(CCN*)[nH]1; Suc = O=C(CCC(=O)[*:2])[*:1]

How the values were obtained:
Set-up in all cases: species or system nude mice
[1] = tested on: GW39 human colon tumor xenografts; conditions: mouse, in vivo
Description: (§1) The bispecific antibody I-125-hMN-14×679-F(ab′)2 (anti-CEA×anti-HSG, radiolabeled with iodine-125 as a tracer radionuclide) was injected into nude mice bearing GW39 human colon tumor xenografts. Twenty-four hours later, the Ga-67-IMP 241 peptide, prepared according to the method described in Example # 4, was injected. At specified times post-injection, five animals per time-point were sacrificed and tissues collected and counted for both I-125 and Ga-67 radioactivity, using dual energy windows for each respective radionuclide. Additionally, biodistribution of Ga-67-IMP 241 given alone, without bsAb pretargeting is shown in Table 3 (four animals per group in this series). In each Table, the data is presented in terms of percent injected dose per gram of tissue (± standard deviation). Additionally, the biodistribution data for I-125-hMN-14×679-F(ab′)2 and Ga-67-IMP 241, from the same experiment, is reported in terms of tumor-to non-tumor ratio (T/NT) (Tables 4 & 5, for 1–125 and Ga-67, respectively).

in vivo = conditions: nude, mouse, total radioactivity
Description: as §1

[2] = tested on: GW39 human colon tumor xenografts; experiment: in vivo; conditions: mouse
Description: as §1

[3] = Tumor-to-tissue ratio Lg. Intestine
[4] = Tumor-to-tissue ratio Sm. Intestine

tissue to tissue ratio at 1 h (in vivo; Tumor-to-tissue ratio Blood): 1.7 ± 0.8
tissue to tissue ratio at 2 h (in vivo; Tumor-to-tissue ratio Blood): 6.1 ± 5
tissue to tissue ratio at 3 h (in vivo; Tumor-to-tissue ratio Blood): 8.5 ± 9.5
tissue to tissue ratio at 4 h (in vivo; Tumor-to-tissue ratio Blood): 8.7 ± 4.6
tissue to tissue ratio at 6 h (in vivo; Tumor-to-tissue ratio Blood): 12.1 ± 8
tissue to tissue ratio at 1 h (in vivo; Tumor-to-tissue ratio Bone): 11.5 ± 11
tissue to tissue ratio at 2 h (in vivo; Tumor-to-tissue ratio Bone): 24.6 ± 15.1
tissue to tissue ratio at 3 h (in vivo; Tumor-to-tissue ratio Bone): 17.8 ± 13.7
tissue to tissue ratio at 4 h (in vivo; Tumor-to-tissue ratio Bone): 18.3 ± 3.1
tissue to tissue ratio at 6 h (in vivo; Tumor-to-tissue ratio Bone): 53 ± 41.7
tissue to tissue ratio at 1 h (in vivo; Tumor-to-tissue ratio Kidney): 2.3 ± 1.6
tissue to tissue ratio at 2 h (in vivo; Tumor-to-tissue ratio Kidney): 3.5 ± 2.2
tissue to tissue ratio at 3 h (in vivo; Tumor-to-tissue ratio Kidney): 2.4 ± 1.8
tissue to tissue ratio at 4 h (in vivo; Tumor-to-tissue ratio Kidney): 3.1 ± 1.1
tissue to tissue ratio at 6 h (in vivo; Tumor-to-tissue ratio Kidney): 4.3 ± 2.7
tissue to tissue ratio at 1 h (in vivo; [3]): 67.3 ± 44.1
tissue to tissue ratio at 2 h (in vivo; [3]): 74.2 ± 55
tissue to tissue ratio at 3 h (in vivo; [3]): 72.7 ± 89
tissue to tissue ratio at 4 h (in vivo; [3]): 56.5 ± 21.7
tissue to tissue ratio at 6 h (in vivo; [3]): 162 ± 270
tissue to tissue ratio at 1 h (in vivo; Tumor-to-tissue ratio Liver): 8 ± 3.8
tissue to tissue ratio at 2 h (in vivo; Tumor-to-tissue ratio Liver): 15.9 ± 8.9
tissue to tissue ratio at 3 h (in vivo; Tumor-to-tissue ratio Liver): 13.1 ± 12
tissue to tissue ratio at 4 h (in vivo; Tumor-to-tissue ratio Liver): 16.2 ± 8.6
tissue to tissue ratio at 6 h (in vivo; Tumor-to-tissue ratio Liver): 16 ± 10.5
tissue to tissue ratio at 1 h (in vivo; Tumor-to-tissue ratio Lungs): 4.5 ± 1.9
tissue to tissue ratio at 2 h (in vivo; Tumor-to-tissue ratio Lungs): 13.1 ± 7.5
tissue to tissue ratio at 3 h (in vivo; Tumor-to-tissue ratio Lungs): 11.4 ± 11.1
tissue to tissue ratio at 4 h (in vivo; Tumor-to-tissue ratio Lungs): 13.5 ± 5.9
tissue to tissue ratio at 6 h (in vivo; Tumor-to-tissue ratio Lungs): 20.2 ± 12.5
tissue to tissue ratio at 1 h (in vivo; [4]): 18.6 ± 9.1
tissue to tissue ratio at 2 h (in vivo; [4]): 27.7 ± 9.1
tissue to tissue ratio at 3 h (in vivo; [4]): 35.5 ± 26
tissue to tissue ratio at 4 h (in vivo; [4]): 22 ± 12.7
tissue to tissue ratio at 6 h (in vivo; [4]): 47.2 ± 35.9
tissue to tissue ratio at 1 h (in vivo; Tumor-to-tissue ratio Spleen): 10.7 ± 7.2
tissue to tissue ratio at 2 h (in vivo; Tumor-to-tissue ratio Spleen): 26.6 ± 28.7
tissue to tissue ratio at 3 h (in vivo; Tumor-to-tissue ratio Spleen): 16.3 ± 13.1
tissue to tissue ratio at 4 h (in vivo; Tumor-to-tissue ratio Spleen): 26.1 ± 23.4
tissue to tissue ratio at 6 h (in vivo; Tumor-to-tissue ratio Spleen): 17.4 ± 12.7
tissue to tissue ratio at 1 h (in vivo; Tumor-to-tissue ratio Stomach): 36.7 ± 22.8
tissue to tissue ratio at 2 h (in vivo; Tumor-to-tissue ratio Stomach): 52.8 ± 17.6
tissue to tissue ratio at 3 h (in vivo; Tumor-to-tissue ratio Stomach): 73.6 ± 47.4
tissue to tissue ratio at 4 h (in vivo; Tumor-to-tissue ratio Stomach): 56.9 ± 36
tissue to tissue ratio at 6 h (in vivo; Tumor-to-tissue ratio Stomach): 112 ± 60.7
Tumor-to-tissue ratio Blood [2]: above 6:1
Tumor-to-tissue ratio Kidney [2]: ~3.5:1
Structure (SMILES): NC(=O)[C@H](CCCCNC(=O)CNC(=O)CCC(=O)NCCc1cnc[nH]1)NC(=O)[C@@H](Cc1ccc(O)cc1)NC(=O)[C@H](CCCCNC(=O)CNC(=O)CCC(=O)NCCc1cnc[nH]1)NC(=O)[C@H](Cc1ccccc1)NC(=O)CN1CCN(CC(=O)O)CCN(CC(=O)O)CCN(CC(=O)O)CC1 [Ga-67-IMP 241, metal not drawn] ({DOTA}-FK([Gly-Suc-NH(2-(imidazol-4-yl)ethyl)])[dY]K([Gly-Suc-NH(2-(imidazol-4-yl)ethyl)])-NH2)
Clearance when given alone [1]: essentially clears completely within the first hour post-injection
